Experimental data from patent US20250034079A1, “PROCESS FOR RECOVERING AMINOBENZOIC ACID FROM AN AQUEOUS MOTHER LIQUOR” (Covestro Deutschland AG, priority 2021, published 2025).
Values after ≈ are worked out from the molar mass of the structure shown.

Legend:
[1] = physchem; settings: for solubility: water; for Solubility in water at RT: solubility of the extractant
Description: (§1) The remaining mother liquor was extracted in one stage with various solvents (step (C)). […] The extraction was conducted at 30° C. The experiments were assessed by ascertaining the partition coefficients K (=ratio of the ortho-aminobenzoic acid [oAB] concentration in g/L in the organic phase [ORG=first alcoholic phase] to the aqueous phase [AQ=first aqueous phase]), the solubilities of the extractant in the aqueous phase after the extraction (=first aqueous phase) and—in four cases—the proportion by mass of organic secondary components (SC) in the organic extract phase (=first alcoholic phase) based on the totality of the organic secondary components in the two phases (=m(SC)ORG/m(SC)TOT). For this purpose, a separation was conducted by HPLC; organic impurities that elute earlier than ortho-aminobenzoic acid are referred to collectively as polar secondary components, and organic impurities that elute later than ortho-aminobenzoic acid as nonpolar secondary components.

[2] = One-stage extraction of ortho-aminobenzoic acid from crystallization mother liquor with various extractants (partition coefficient); settings: pH 3.5±0.2, 8.7 g/L oAB, phase ratio organic to aqueous 0.5, 30° C.
Description: For the evaluation of the distribution of a component between two phases, the two phases were analyzed by HPLC-MS (with identical sample preparation and method). The coefficients of distribution were then determined as the ratio of peak areas for the same retention time.
as §1

SMILES: CCCCCCCCCCO [1-Decanol]
- solubility [1]: 40 µg/mL (≈ 253 µM)

SMILES: CCC(C)=O [2-Butanone]
- K = c(oAB)ORG/c(oAB)AQ (partition coefficient of ortho-aminobenzoic acid, organic to aqueous phase) [2]: 26.12

SMILES: CCCCOC(C)=O [Butyl acetate]
- solubility [1]: ~6000 µg/mL

SMILES: CC1CCCC1 [Methylcyclopentane]
- Solubility in water at RT [1]: insoluble

SMILES: CCCCCCCC/C=C\CCCCCCCCO [Oleyl alcohol]
- Solubility in water at RT [1]: insoluble
